Reference: patent US20260034125A1, “N-PHENYL-1-(PHENYLSULFONYL)PIPERIDIN-4-AMINE DERIVATIVES AS CCR6 INHIBITORS” (priority 2023, published 2026)

How the values were obtained:
Type in all cases: cell-based
human CCR6 [1] = target: T1, human CCR6 (Homo sapiens, UniProt P51684); test: CHO-K1 CCR6 chemotaxis assay towards CCL20; conditions: relative -LogIC50; CHO-K1 cells overexpressing human CCR6, 100 ng/ml CCL20, Transwell, 4 h
T1 sequence (P51684 1-374): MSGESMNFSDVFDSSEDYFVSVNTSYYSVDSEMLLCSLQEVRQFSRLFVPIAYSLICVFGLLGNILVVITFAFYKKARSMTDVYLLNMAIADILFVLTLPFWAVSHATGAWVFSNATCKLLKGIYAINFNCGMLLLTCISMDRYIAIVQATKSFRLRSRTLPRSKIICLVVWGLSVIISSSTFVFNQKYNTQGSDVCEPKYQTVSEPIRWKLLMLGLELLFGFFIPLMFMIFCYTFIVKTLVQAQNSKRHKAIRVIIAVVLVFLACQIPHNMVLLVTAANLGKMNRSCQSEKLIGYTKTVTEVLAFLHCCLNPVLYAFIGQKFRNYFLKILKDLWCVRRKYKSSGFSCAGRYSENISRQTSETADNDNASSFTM
Description: Cells overexpressing human CCR6 were used in the chemotaxis assay (DiscoverX, CAMP Hunter™ CHO-K1 CCR6 Gi Cell Line). Growth medium of these cells consisted of DMEM/F12, non-essential Amino acids (1×NEAA, Gibco 11140050), 10% FBS and 1× pen/strep (Gibco 15140). For the chemotaxis assay, Corning Transwell plates were used with a pore size of 8 μm (Corning 351164). Cells were harvested using trypsin and diluted to 4*10^6 cells/ml in chemotaxis medium (DMEM, 0.25% BSA, pen/strep). Compounds were four-fold serially diluted in DMSO. Further dilutions were made in chemotaxis medium. Cells were incubated with test compounds for 30 min at 37° C. prior to initiation of the assay (2*10^6 cells/ml). Final DMSO concentration in the assay was 0.2%. Wells of the Transwell plates were filled with 200 μl chemotaxis medium containing 100 ng/ml CCL20 (R&D systems 360-MP). 50 μl of the cell/compound suspension was added to the inserts of the Transwell plates (100,000 cells/insert). The Transwell plates were placed in an incubator at 37° C., 5% CO2 for 4 h. After 4 h, the number of migrated cells was quantified using CellTiter Glo (Promega). Percentage inhibition values were calculated based on the low and high signal obtained with 0.2% DMSO in chemotaxis medium without and with CCL20, respectively. The relative-LogIC50 was determined with GraphPad Prism 9 using a four-parameter dose-response model.

human CCR6 [2] = target: T1, human CCR6; test: Human CCR6-Cre reporter assay; parameters: The second construct contained the open reading frame of human CCR6 in the pUNO1 backbone; host or cells: 293 FT cells; conditions: relative -LogIC50; transfected 293 FT cells, 6 μM Forskolin, 6 nM CCL20, luciferase readout, 5h
Description: 293 FT cells were transfected with 2 constructs using TransIT-293 (Mirus). The first construct (pGL4.29, Promega) expressed the luciferase reporter gene luc2P in response to the binding of cAMP-induced CREB to the CRE element in its promoter. The second construct contained the open reading frame of human CCR6 in the pUNO1 backbone under the control of an enhanced CMV promoter (In VivoGen). 48h after transfection, cells were harvested and diluted to 750,000 cells/ml in culture medium (DMEM, 10% FBS, 1× pen/strep (Gibco 15140)). Compounds were 2.5-fold serially diluted in DMSO. Further dilutions were made in assay medium (DMEM, 10% FBS, 1× pen/strep, 6 μM Forskolin, 6 nM CCL20). 4 μl of the compound solution was added to a white MW384 plate, followed by 20 μl of the cell suspension. Final DMSO concentration in the assay was 0.1%. The MW384 plate was placed in an incubator at 37° C., 5% CO2 for 5h. Luciferase activity was determined by addition of 24 μl of a 2.5× diluted BriteLite luciferase solution (Perkin Elmer), followed by luminescence measurement using a VICTOR Plate reader (Perkin Elmer). […] The relative-LogIC50 was determined with GraphPad Prism 9 using a four-parameter dose-response model.

Human CD4+ T cells = test: CD4+ T cell chemotaxis assay towards CCL20; conditions: relative -LogIC50, 150 ng/ml CCL20, Transwell, 3 h
Description: Human CD4+ T cells were isolated from buffy coats of healthy donors using a CD4+ T Cell Isolation Kit (Miltenyi Biotec130-096-533). Isolated T cells were stimulated overnight with anti-CD3 and anti-CD28 antibodies (Biolegend 300314/302934) in growth medium (RPMI1640, 10% heat-inactivated FBS, 1× pen/strep (Gibco 15140)). For the chemotaxis assay, Corning Transwell plates were used with a pore size of 5 μm (Corning 3388). T cells were counted and diluted to 6*10^6 cells/ml in chemotaxis medium (RPMI1640, 1% BSA, pen/strep). Compounds were four-fold serially diluted in DMSO. Further dilutions were made in chemotaxis medium. Cells were incubated with test compounds for 30 min at 37° C. prior to initiation of the assay (3*10^6 cells/ml). Final DMSO concentration in the assay was 0.2%. Wells of the Transwell plates were filled with 200 μl chemotaxis medium containing 150 ng/ml CCL20 (R&D systems 360-MP). 50 μl of the cell/compound suspension was added to the inserts of the Transwell plates (150,000 cells/insert). The Transwell plates were placed in an incubator at 37° C., 5% CO2 for 3 h. After 3 h, the number of migrated cells was quantified using CellTiter Glo (Promega). Percentage inhibition values were calculated based on the low and high signal obtained with 0.2% DMSO in chemotaxis medium without and with CCL20, respectively. The relative −LogIC50 was determined with GraphPad Prism 9 using a four-parameter dose-response model.

| Structure (SMILES) | IC50 (human CCR6 [1]) | IC50 (human CCR6 [2]) | IC50 (Human CD4+ T cells) |
| --- | --- | --- | --- |
| CNC(=O)c1ccc(-c2ccc(S(=O)(=O)N3CCC(Nc4ccc(C5(C(F)(F)F)CC5)cc4)CC3)cc2)cc1 [Example 5, N-methyl-4′-{[4-({4-[1-(trifluoromethyl)cyclopropyl]phenyl}Amino)piperidin-1-yl]sulfonyl}-[1,1′-biphenyl]-4-carboxamide] | 158 nM | 158 nM | – |
| CNC(=O)c1ccc(-c2ccc(S(=O)(=O)N3CCC(Nc4ccc(C5(C(F)(F)F)CC5)cc4)CC3)cc2)cn1 [Example 6, N-methyl-5-(4-{[4-({4-[1-(trifluoromethyl)cyclopropyl]phenyl}Amino)piperidin-1-yl]sulfonyl}phenyl)pyridine-2-carboxamide] | 126 nM | 126 nM | – |
| CC(C)c1nnc2ccc(-c3ccc(S(=O)(=O)[C@H]4CC[C@H](Nc5ccc(C6(C#N)CC6)cn5)CC4)cc3)cn12 [Example 30, 1-(6-{[(trans)-4-{4-[3-(propan-2-yl)-[1,2,4]triazolo[4,3-a]pyridin-6-yl]benzenesulfonyl}cyclohexyl]amino}pyridin-3-yl)cyclopropane-1-carbonitrile] | – | 200 nM | 251 nM |
| CC(C)c1nnc2ccc(-c3ccc(S(=O)(=O)N4CCC(Nc5ccc(C6(C#N)CC6)cn5)CC4)cc3)cn12 [Example 31, 1-{6-[(1-{4-[3-(propan-2-yl)-[1,2,4]triazolo[4,3-a]pyridin-6-yl]benzenesulfonyl}piperidin-4-yl)amino]pyridin-3-yl}cyclopropane-1-carbonitrile] | – | 200 nM | 79.4 nM |
| Cc1cc(-c2ccc(S(=O)(=O)N3CCC(Nc4ccc(C5(C#N)CC5)cn4)CC3)cc2)cn2c(C(C)C)nnc12 [Example 32, 1-{6-[(1-{4-[8-methyl-3-(propan-2-yl)-[1,2,4]triazolo[4,3-a]pyridin-6-yl]benzenesulfonyl}piperidin-4-yl)amino]pyridin-3-yl}cyclopropane-1-carbonitrile] | – | 200 nM | 126 nM |
| N#CC1(c2ccc(NC3CCN(S(=O)(=O)c4ccc(-c5ccc6n[nH]c(=O)n6c5)cc4)CC3)nc2)CC1 [Example 35, 1-(6-{[1-(4-{3-oxo-2H,3H-[1,2,4]triazolo[4,3-a]pyridin-6-yl}benzenesulfonyl)piperidin-4-yl]amino}pyridin-3-yl)cyclopropane-1-carbonitrile] | – | 398 nM | 1580 nM |
| O=S(=O)(c1ccc(-c2ccc3nccn3c2)cc1)N1CCC(Nc2ccc(C3(C(F)(F)F)CC3)cn2)CC1 [Example 37, N-[1-(4-{imidazo[1,2-a]pyridin-6-yl}benzenesulfonyl)piperidin-4-yl]-5-[1-(trifluoromethyl)cyclopropyl]pyridin-2-amine] | – | 100 nM | 5.01 nM |
| Cc1nnc2ccc(-c3ccc(S(=O)(=O)N4CCC(Nc5ccc(C6(C(F)(F)F)CC6)cc5)CC4)cc3)cn12 [Example 42, 1-(4-{3-methyl-[1,2,4]triazolo[4,3-a]pyridin-6-yl}benzenesulfonyl)-N-{4-[1-(trifluoromethyl)cyclopropyl]phenyl}piperidin-4-amine] | – | 126 nM | 6.31 nM |
| O=c1[nH]nc2ccc(-c3ccc(S(=O)(=O)N4CCC(Nc5ccc(C6(C(F)(F)F)CC6)cc5)CC4)cc3)cn12 [Example 43, 6-(4-{[4-({4-[1-(trifluoromethyl)cyclopropyl]phenyl}amino)piperidin-1-yl]sulfonyl}phenyl)-2H,3H-[1,2,4]triazolo[4,3-a]pyridin-3-one] | – | 100 nM | 12.6 nM |
| Cc1nnc2ccc(-c3ccc(S(=O)(=O)N4CCC(Nc5ccc(C6(C(F)(F)F)CC6)cn5)CC4)cc3)cn12 [Example 47, N-[1-(4-{3-methyl-[1,2,4]triazolo[4,3-a]pyridin-6-yl}benzenesulfonyl)piperidin-4-yl]-5-[1-(trifluoromethyl)cyclopropyl]pyridin-2-amine] | – | – | 15.8 nM |

Further compounds by falling IC50 (human CCR6 [2]), results first:

| IC50 (human CCR6 [1]) | IC50 (human CCR6 [2]) | IC50 (Human CD4+ T cells) | Structure (SMILES) |
| --- | --- | --- | --- |
| – | 100 nM | 2.51 nM | Cc1n[nH]c2ncc(-c3ccc(S(=O)(=O)[C@H]4CC[C@H](Nc5ccc(C6(C(F)(F)F)CC6)cc5)CC4)cc3)cc12 [Example 22, N-[(trans)-4-(4-{3-methyl-1H-pyrazolo[3,4-b]pyridin-5-yl}benzenesulfonyl)cyclohexyl]-4-[1-(trifluoromethyl)cyclopropyl]aniline] |
| 63.1 nM | 79.4 nM | – | Cc1cnc2ccc(-c3ccc(S(=O)(=O)N4CCC(Nc5ccc(C6(C(F)(F)F)CC6)cc5)CC4)cc3)cn12 [Example 3, 1-(4-{3-methylimidazo[1,2-a]pyridin-6-yl}benzenesulfonyl)-N-{4-[1-(trifluoromethyl)cyclopropyl]phenyl}piperidin-4-amine] |
| 25.1 nM | 79.4 nM | – | CNC(=O)c1cccc(-c2ccc(S(=O)(=O)N3CCC(Nc4ccc(C5(C(F)(F)F)CC5)cc4)CC3)cc2)c1 [Example 4, N-methyl-4′-{[4-({4-[1-(trifluoromethyl)cyclopropyl]phenyl}Amino)piperidin-1-yl]sulfonyl}-[1,1′-biphenyl]-3-carboxamide] |
| – | 63.1 nM | 1.58 nM | Cc1c[nH]c2ncc(-c3ccc(S(=O)(=O)[C@H]4CC[C@H](Nc5ccc(C6(C(F)(F)F)CC6)cc5)CC4)cc3)cc12 [Example 21, N-[(trans)-4-(4-{3-methyl-1H-pyrrolo[2,3-b]pyridin-5-yl}benzenesulfonyl)cyclohexyl]-4-[1-(trifluoromethyl)cyclopropyl]aniline] |
| – | 63.1 nM | 3.98 nM | CC(C)c1nnc2cnc(-c3ccc(S(=O)(=O)N4CCC(Nc5ccc(C6(C(F)(F)F)CC6)cc5)CC4)cc3)cn12 [Example 41, 1-{4-[3-(propan-2-yl)-[1,2,4]triazolo[4,3-a]pyrazin-6-yl]benzenesulfonyl}-N-{4-[1-(trifluoromethyl)cyclopropyl]phenyl}piperidin-4-amine] |
| – | 31.6 nM | 3.16 nM | CC(C)c1nnc2ccc(-c3ccc(S(=O)(=O)N4CCC(Nc5ccc(C6(C(F)(F)F)CC6)cn5)CC4)cc3)cn12 [Example 36, N-(1-{4-[3-(propan-2-yl)-[1,2,4]triazolo[4,3-a]pyridin-6-yl]benzenesulfonyl}piperidin-4-yl)-5-[1-(trifluoromethyl)cyclopropyl]pyridin-2-amine] |
